Measurements taken from patent publication US10526327B2, “Histone demethylase inhibitors” (CELGENE QUANTICEL RESEARCH, INC., priority 2013, dated 2020).

Biological target: T1, JMJD2C (Homo sapiens, UniProt Q9H3R0)
T1 construct: purchased BPS Bioscience 50105
T1 sequence (Q9H3R0 2-372): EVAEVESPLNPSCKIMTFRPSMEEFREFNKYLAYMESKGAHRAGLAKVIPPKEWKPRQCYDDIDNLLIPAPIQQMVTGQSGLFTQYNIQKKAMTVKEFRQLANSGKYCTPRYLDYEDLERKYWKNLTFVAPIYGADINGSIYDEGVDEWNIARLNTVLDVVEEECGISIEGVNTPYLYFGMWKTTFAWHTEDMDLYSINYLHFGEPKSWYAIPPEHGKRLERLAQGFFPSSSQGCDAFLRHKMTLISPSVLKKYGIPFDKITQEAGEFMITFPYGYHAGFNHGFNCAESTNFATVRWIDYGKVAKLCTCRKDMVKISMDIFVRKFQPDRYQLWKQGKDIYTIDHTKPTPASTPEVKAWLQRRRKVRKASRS
Experiment: JMJD2C in vitro enzyme inhibition assay (TR-FRET)
Type: biochemical
How it was run: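 IC50 came from 665/615 TR-FRET ratios (Eu-anti-H3K9me2 antibody, streptavidin-APC, EDTA quench) over 11-point inhibitor series. Reactions ran 30 min at room temperature: 0.3 nM JMJD2C (AA 2-372, baculovirus), 300 nM biotinylated H3K9me3 peptide, 2 μM alpha-ketoglutarate, 2 μM Fe(II), ascorbate, pH 7.3.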

`Oc1nc(OCc2cccc(Cl)c2Cl)nc2cnccc12` [Example 173, 2-[(2,3-dichlorophenyl)methoxy]pyrido[3,4-d]pyrimidin-4-ol] gave an IC50 of no more than 100 nM.
Work on `O=S(=O)(c1ccccc1)N1CCC[C@@H](n2cc(Oc3nc(O)c4ccncc4n3)cn2)C1` [Example 152, 2-({1-[(3R)-1-(benzenesulfonyl)piperidin-3-yl]-1H-pyrazol-4-yl}oxy)pyrido[3,4-d]pyrimidin-4-ol] yielded an IC50 of no more than 100 nM.
For `Oc1nc(OCc2ccccc2Cl)nc2cnccc12` [Example 171, 2-[(2-chlorophenyl)methoxy]pyrido[3,4-d]pyrimidin-4-ol], the IC50 was no more than 100 nM.
`CN(C)CCCOc1nc(O)c2ccncc2n1` [Example 21, 2-[3-(dimethylamino)propoxy]pyrido[3,4-d]pyrimidin-4-ol] was tested, and the IC50 was 100 to 1000 nM.
`Oc1nc(OCCc2ccc(Cl)c(Cl)c2)nc2cnccc12` [Example 175, 2-[2-(3,4-dichlorophenyl)ethoxy]pyrido[3,4-d]pyrimidin-4-ol] was tested, and the IC50 was no more than 100 nM.
In the case of `CC(C)COc1nc(O)c2ccncc2n1` [Example 14, 2-(2-methylpropoxy)pyrido[3,4-d]pyrimidin-4-ol], the IC50 is reported as 100 to 1000 nM.
Molecule `CC(COc1nc(O)c2ccncc2n1)c1ccccc1` (stereo not shown) [Example 17, 2-(2-phenylpropoxy)pyrido[3,4-d]pyrimidin-4-ol] has an IC50 of 100 to 1000 nM.
Work on `CCC(C)COc1nc(O)c2ccncc2n1` (stereo not shown) [Example 16, 2-(2-methylbutoxy)pyrido[3,4-d]pyrimidin-4-ol] yielded an IC50 of 100 to 1000 nM.
Work on `Cn1cnc(-c2nccc3c(O)nc(OCc4ccc(Cl)cc4)nc23)c1` [Example 112, 2-[(4-chlorophenyl)methoxy]-8-(1-methyl-1H-imidazol-4-yl)pyrido[3,4-d]pyrimidin-4-ol] yielded an IC50 of 100 to 1000 nM.
For `Oc1nc(OC(c2ccccc2)C(F)(F)F)nc2cnccc12` (stereo not shown) [Example 176, 2-(2,2,2-trifluoro-1-phenylethoxy)pyrido[3,4-d]pyrimidin-4-ol], the IC50 was no more than 100 nM.
Molecule `COCCOc1nc(O)c2ccncc2n1` [Example 22, 2-(2-methoxyethoxy)pyrido[3,4-d]pyrimidin-4-ol] has an IC50 of 100 to 1000 nM.
Molecule `Oc1nc(OCc2ccc(C(F)(F)F)cc2)nc2cnccc12` [Example 170, 2-{[4-(trifluoromethyl)phenyl]methoxy}pyrido[3,4-d]pyrimidin-4-ol] has an IC50 of 1000 to 10000 nM.
Molecule `Cn1cnc(-c2nccc3c(O)nc(OCc4ccc(C(F)(F)F)cc4)nc23)c1` [Example 111, 8-(1-methyl-1H-imidazol-4-yl)-2-{[4-(trifluoromethyl)phenyl]methoxy}pyrido[3,4-d]pyrimidin-4-ol] has an IC50 of 100 to 1000 nM.
`Oc1nc(Oc2cnn(C(c3ccccc3)C3CC3)c2)nc2cnccc12` (stereo not shown) [Example 116, 2-({1-[cyclopropyl(phenyl)methyl]-1H-pyrazol-4-yl}oxy)pyrido[3,4-d]pyrimidin-4-ol] showed an IC50 of no more than 100 nM.
`Oc1nc(OCCc2ccc(Cl)cc2)nc2cnccc12` [Example 174, 2-[2-(4-chlorophenyl)ethoxy]pyrido[3,4-d]pyrimidin-4-ol] showed an IC50 of 100 to 1000 nM.
Molecule `Oc1nc(Oc2ccc(Cl)c(Cl)c2)nc2cnccc12` [Example 114, 2-(3,4-dichlorophenoxy)pyrido[3,4-d]pyrimidin-4-ol] has an IC50 of no more than 100 nM.
`CC(Cc1ccccc1)Oc1nc(O)c2ccncc2n1` (stereo not shown) [Example 19, 2-(1-phenylpropan-2-yloxy)pyrido[3,4-d]pyrimidin-4-ol] gave an IC50 of 1000 to 10000 nM.
`Oc1nc(Oc2cnn([C@@H]3CCCNC3)c2)nc2cnccc12` [Example 149, 2-({1-[(3R)-piperidin-3-yl]-1H-pyrazol-4-yl}oxy)pyrido[3,4-d]pyrimidin-4-ol] gave an IC50 of no more than 100 nM.
`CCC(Oc1nc(O)c2ccnc(-c3cn(C)cn3)c2n1)C(F)(F)F` (stereo not shown) [Example 110, 8-(1-methyl-1H-imidazol-4-yl)-2-[(1,1,1-trifluorobutan-2-yl)oxy]pyrido[3,4-d]pyrimidin-4-ol] gave an IC50 of 1000 to 10000 nM.
For `Oc1nc(Oc2cnn(C3CCCN(c4ccc(F)cc4)C3)c2)nc2cnccc12` (stereo in doubt) [Example 169, 2-({1-[(3R)-1-(4-fluorophenyl)piperidin-3-yl]-1H-pyrazol-4-yl}oxy)pyrido[3,4-d]pyrimidin-4-ol], the IC50 was no more than 100 nM.
`Cn1cnc(-c2nccc3c(O)nc(OCc4ccccc4C(F)(F)F)nc23)c1` [Example 107, 8-(1-methyl-1H-imidazol-4-yl)-2-{[2-(trifluoromethyl)phenyl]methoxy}pyrido[3,4-d]pyrimidin-4-ol] showed an IC50 of 100 to 1000 nM.
`CNCC(=O)N1CC[C@H](n2cc(Oc3nc(O)c4ccncc4n3)cn2)C1` [Example 144, 1-[(3S)-3-[4-({4-hydroxypyrido[3,4-d]pyrimidin-2-yl}oxy)-1H-pyrazol-1-yl]pyrrolidin-1-yl]-2-(methylamino)ethan-1-one] showed an IC50 of no more than 100 nM.
Molecule `Oc1nc(Oc2cnn([C@H]3CCCNC3)c2)nc2cnccc12` [Example 160, 2-({1-[(3S)-piperidin-3-yl]-1H-pyrazol-4-yl}oxy)pyrido[3,4-d]pyrimidin-4-ol] has an IC50 of no more than 100 nM.
`Oc1nc(OCc2c(Cl)cccc2Cl)nc2cnccc12` [Example 172, 2-[(2,6-dichlorophenyl)methoxy]pyrido[3,4-d]pyrimidin-4-ol] gave an IC50 of 1000 to 10000 nM.
In the case of `Oc1nc(Oc2cnn(C3CCN(Cc4ccccc4)CC3)c2)nc2cnccc12` [Example 123, 2-{[1-(1-benzylpiperidin-4-yl)-1H-pyrazol-4-yl]oxy}pyrido[3,4-d]pyrimidin-4-ol], the IC50 is reported as no more than 100 nM.
For `O=C(C1CCNCC1)N1CC[C@H](n2cc(Oc3nc(O)c4ccncc4n3)cn2)C1` [Example 143, 2-({1-[(3S)-1-(piperidine-4-carbonyl)pyrrolidin-3-yl]-1H-pyrazol-4-yl}oxy)pyrido[3,4-d]pyrimidin-4-ol], the IC50 was no more than 100 nM.
In the case of `Cn1cnc(-c2nccc3c(O)nc(O[C@H](c4ccccc4)C(F)(F)F)nc23)c1` [Example 108, 8-(1-methyl-1H-imidazol-4-yl)-2-[(1R)-2,2,2-trifluoro-1-phenylethoxy]pyrido[3,4-d]pyrimidin-4-ol], the IC50 is reported as 100 to 1000 nM.
With `Cn1cnc(-c2nccc3c(O)nc(O[C@@H](c4ccccc4)C(F)(F)F)nc23)c1` [Example 109, 8-(1-methyl-1H-imidazol-4-yl)-2-[(1S)-2,2,2-trifluoro-1-phenylethoxy]pyrido[3,4-d]pyrimidin-4-ol] the IC50 was 100 to 1000 nM.
